Experimental data published in paper PMC12763877 (Journal of Experimental & Clinical Cancer Research : CR, 2025).

Key:
[1] = system: STING signaling pathway in HUVEC; experiment: Western blot of STING pathway proteins; type: cell-based, human; details: 48 h
Protocol: (§1) Total protein was extracted using RIPA lysis buffer (Solarbio, China) supplemented with phenylmethylsulfonyl fluoride (PMSF; Thermo Fisher Scientific, USA), protease inhibitor cocktail (Roche, Switzerland), and phosphatase inhibitor cocktail (Roche, Switzerland). Protein concentration was determined using a BCA protein assay kit (Thermo Fisher Scientific, USA). Equal amounts of protein were separated by 10% SDS-polyacrylamide gel electrophoresis (SDS-PAGE) and transferred onto nitrocellulose (NC) membranes. […] All primary antibodies were purchased from Cell Signaling Technology (CST, USA), except for GAPDH, which was obtained from Proteintech (Wuhan, China). After washing, the membranes were incubated with HRP-conjugated goat anti-rabbit or anti-mouse IgG secondary antibodies (Biosharp, China) for 1 h at room temperature. Protein bands were visualized using an enhanced chemiluminescence (ECL) detection system and scanned using a chemiluminescence imaging system.

[2] = system: zebrafish embryos; experiment: Zebrafish embryo toxicity; type: in vivo, zebrafish (Danio rerio); details: embryos exposed 12 to 48 hpf, survival
Protocol: (§2) Transgenic zebrafish Tg(flk: EGFP) were obtained from the China Zebrafish Resource Center and maintained at 28 ± 1 °C under a 14-hour light/10-hour dark cycle. […] Survival rates were recorded to calculate the median lethal concentration (LC₅₀). For the retinal angiogenesis assay, embryos at 1 day post fertilization (dpf) were transferred to E3 medium containing 5 mM CoCl₂·6 H₂O and 2.5 µg/mL GS4012 to induce hypoxia and abnormal vessel formation. At 3 dpf, test compounds were added and incubation continued until 5 dpf. Blank, model, and vehicle (≤ 0.1% DMSO) controls were included, with at least three replicates per group (n = 10–15 embryos). At 5 dpf, retinal vasculature was imaged using fluorescence microscopy and analyzed for branching number, vessel length, and density using ImageJ. Data are presented as mean ± standard deviation (SD) and analyzed using one-way ANOVA followed by Tukey’s post hoc test, with p < 0.05 considered statistically significant.
The zebrafish (Danio rerio) model was employed due to its distinct advantages, the optical transparency, which enable in vivo vascular visualization. […] Firstly, the 8 candidate compounds underwent preliminary toxicity evaluation in zebrafish embryos. […] At 48 hpf, the number of surviving embryos was quantified, and the lethal dose 50 (LD50) for each compound was determined based on the survival data. […]

[3] = system: zebrafish retinal vasculature; experiment: Zebrafish hypoxia-induced retinal vascular abnormality model; type: in vivo, zebrafish (Danio rerio); details: CoCl2 5 mM + GS401 2.5 ug/ml; compounds at concentrations < LD50 (A-2 1 µM); imaged at 5 dpf
Protocol: as §2
Furthermore, we established a hypoxia-induced vascular dysregulation model with CoCl2 (5mM) and a VEGF inductive agent GS401 (2.5 ug/ml) in zebrafish embryos to assess the capacity of candidate compounds to regulate vascular normalization. Following Zebrafish toxicity profiling, 8 candidate compounds were administered at optimized concentrations (< LD50) to treat the zebrafish vascular abnormality model separately. […]

[4] = system: FAK-MMP9 signaling in HUVEC; experiment: Western blot of FAK and MMP-9; type: cell-based, human; details: candesartan 15, 7.5, 3.75 µM; sunitinib 2 µM
Protocol: as §1

[5] = system: 4T1 orthotopic breast tumor vasculature; experiment: Tumor vascular normalization in breast cancer mouse model (immunofluorescence, lectin perfusion, HIF-1α IHC, H&E); type: in vivo, BALB/c mice
Protocol: The tumor tissues were then excised. […] All animals were raised in an SPF environment. […] We followed all the rules and regulations.
Paraffin-embedded mouse tumor tissue sections were deparaffinized, rehydrated, and fixed with 4% paraformaldehyde at room temperature for 20 min. After washing with PBS, the sections were permeabilized with 1% Triton X-100 (Solarbio, China) for 15 min at room temperature, followed by blocking with 5% bovine serum albumin (BSA) in PBS containing 0.1% Triton X-100 for 1 h at room temperature to reduce nonspecific binding. The sections were first incubated with primary antibodies against PECAM-1 (CD31) and α-smooth muscle actin (α-SMA), including Alexa Fluor 488-conjugated anti-CD31 antibody (clone SC-376764-AF488, Santa Cruz Biotechnology, […]) and rabbit anti-α-SMA antibody (catalog no. AF0048, Beyotime Biotechnology, China). After washing, the sections were further incubated overnight at 4 °C with primary antibodies against dsDNA and HSP60. The next day, the sections were incubated with Alexa Fluor 647-conjugated goat anti-rabbit IgG (H + L) secondary antibody (catalog no. A0468, Beyotime Biotechnology, China) for 1 h at room temperature in the dark. Nuclear staining was performed using DAPI (catalog no. C0060, Solarbio, China). Finally, all slides were mounted with antifade mounting medium and observed using a […] 5 confocal microscope (Leica Microsystems, Germany).
Immunohistochemical staining was performed on formalin-fixed, paraffin-embedded tissue sections. After deparaffinization and rehydration, antigen retrieval was conducted by heating the sections in citrate buffer (pH 6.0) at 95 °C for 12 min. Endogenous peroxidase activity was blocked by incubation with 3% hydrogen peroxide for 10 min at room temperature, followed by blocking of non-specific binding sites with 10% goat serum for 30 min at room temperature. The sections were then incubated overnight at 4 °C with a primary antibody against HIF-1α (rabbit anti-human, catalog no. 48085 T, Cell Signaling Technology, USA) diluted at 1:200. After washing, the sections were incubated with HRP-conjugated goat anti-rabbit IgG secondary antibody (catalog no. A0208, Beyotime Biotechnology, China) at a dilution of 1:500 for 30 min at room temperature. Color development was achieved using a DAB substrate kit, and the sections were counterstained with hematoxylin. After dehydration, clearing, and mounting with neutral resin, the stained sections were observed and imaged under an inverted microscope.
To quantitatively assess vascular maturation, we performed dual immunofluorescence staining for the endothelial cell marker CD31 and pericyte marker α-SMA in tumor tissues. […] In addition, vascular perfusion indicates their transmission function is crucial for the delivery of chemotherapeutic and […] agents. To evaluate the effect of candesartan on tumor vascular perfusion function, DyLight™649-labeled tomato lectin (40 mg/kg), which specifically labels perfused blood vessels, was injected into the mice via tail vein injection 1.5 h before sacrifice. Then, perform frozen sectioning of the tumor tissue, microvessels were labeled with CD31 by immunofluorescence, and the co-expression percentage of tomato lectin and CD31^+ was observed and calculated. As shown in Fig. 4C-D, only a small fraction of CD31^+ blood vessels in the control group were coated with tomato lectin, with a low percentage of CD31^+Lectin^+.

CCOc1nc2cccc(C(=O)O)c2n1Cc1ccc(-c2ccccc2-c2nnn[nH]2)cc1 [Compound A-2, Candesartan]
STING, p-TBK1/TBK1 and p-IRF3/IRF3 levels [1]: dose-dependent upregulation
LD50(µM,48 h) [2]: 1.10 ± 0.12 µM
Effect on hypoxia-induced retinal vascular pathology (ectopic branching, vascular architecture) [3]: markedly attenuated these pathological features
Expression of MMP9 and FAK [4]: significantly decreased the expression of MMP9 and FAK
Percentage of CD31+Lectin+ (vascular perfusion) ([5]; 10 mg/kg and 30 mg/kg, tomato lectin): significantly increased
Coverage of α-SMA+ pericyte on CD31+ endothelial cell ([5]; 10 mg/kg and 30 mg/kg, vs vehicle): significant increase
HIF-1α expression in tumor tissues ([5]; IHC): significant decline
Tumor necrosis (H&E) ([5]; high-dose 30 mg/kg): tendency towards increased necrosis
Tumor necrosis (H&E) ([5]; low-dose 10 mg/kg): reduced necrotic areas
